Data on 6 compounds can be found in ChEMBL document CHEMBL1158016, “Six new spongian diterpenes from the sponge spongia matamata” (J Nat Prod, 1999).

The structures appear in SMILES notation. Converted amounts (≈) assume the structure as drawn.

One data set concerns Artemia. As to the kind of experiment: (§1) Toxicity in brine shrimp. The conditions noted are these: in vivo. The data set is classed as organism-based.
The nature of data set [1]: as §1. The data set is classed as organism-based. The conditions noted are these: artemia, in vivo.

Turning to `CO[C@@H]1OC(=O)C2=C1CC[C@@H]1[C@@]3(C)CCC[C@](C)(C(=O)O)[C@@H]3CC[C@@]21C`, in the data set on Artemia, the Activity result was “Non-toxic”.
With `CO[C@H]1OC(=O)C2=C1[C@]1(C)CC[C@@H]3[C@](C)(CCC[C@]3(C)C(=O)O)[C@H]1CC2`, the Activity entry with Artemia is on record as “Non-toxic”.
Take `C[C@]12CCC[C@](C)(C(=O)O)[C@@H]1CC[C@@]1(C)C3=C(CC[C@H]21)C(=O)OC3`: in the data set on Artemia, the Activity result is reported as “Non-toxic”.
For `C[C@]12CCC[C@](C)(C(=O)O)[C@@H]1CC[C@@]1(C)C3=C(CC[C@H]21)COC3=O`, the Activity result with Artemia is “Non-toxic”.
The same measure, in the same setting: the value for `COC1O[C@H](OC)[C@]2(O)[C@]1(O)CC[C@@H]1[C@@]3(C)CCC[C@](C)(C(=O)O)[C@@H]3CC[C@]12C` (stereo partly specified) was “Non-toxic”.
Turning to `C[C@]12CCC[C@](C)(C(=O)O)[C@@H]1CC[C@@]1(C)c3cocc3CC[C@H]21`, the LC50 in data set [1] was 10 µg/mL (≈ 31.6 µM).

A word on the LC50: it is the concentration lethal to half of the exposed cells or organisms.
